Measurements: patent US20050054582A1, “Para-amino benzoic acids as integrin antagonists” (priority 2001, published 2005)

Test system: adhesion of Ramos cells to VCAM-1
Assay: Adhesion of Ramos cells to immobilized VCAM-1 (domains 1-3)
Format: cell-based
Conditions: Homo sapiens, Ramos
Text: In Vitro Assay: Adhesion of Ramos Cells to Immobilized VCAM-1 (Domains 1-3) Preparation of VCAM-1 (Extracellular Domains 1-3)
Complementary DNA (cDNA) encoding 7-domain form of VCAM-1 (GenBank accession #M60335) was obtained using Rapid-Screen™ cDNA library panels (OriGene Technologies, Inc) at Takara Gene Analysis Center (Shiga, Japan). The primers used were 5′-CCAAGGCAGAGTACGCAAAC-3′ (sense) and 5′-TGGCAGGTATTATTAAGGAG-3′ (antisense). PCR amplification of the 3-domain VCAM-1 cDNA was perform using Pfu DNA polymerase (Stratagene) with the following sets of primers: (U-VCAMd1-3) 5′-CCATATGGTACCTGATCAATTTAAAATCGAGACCACCCCAGAA-3′; (L-VCAMdl-3) 5-CCATATAGCAATCCTAGGTCCAGGGGAGATCTCAACAGTAAA-3′. PCR cycle was 94° C. for 45 sec, 55° C. for 45 sec, 72° C. for 2 min, repeating 15 cycles. After the purification of the PCR product, the fragment was digested with KpnI-AvrII. The digested fragment was ligated into pBluescript IISK(−) (Strategene), which was linearized by digesting with KpnI-XhoI. The ligation was followed by transformation to a Dam/Dcm methylase-free E. coli strain SCS110 (Strategene) to create the donor plasmid […]. To direct VCAM-1 molecule into the insect cell secretory pathway, the VCAM-1 coding sequence was fused to signal peptide sequence of honeybee melittin. The resulting melittin-VCAM fusion was placed in correct orientation to the baculovirus polyhedrin promoter. Baculovirus transfer vector containing first 3-domain form VCAM-1 (pH10) was constructed by ligation of 0.9 kb fragment from AvrII/Klenow/BclI digests of pH7 into SalI/Klenow/BamHI digests of pMelBacB (Invitrogen). Recombinant baculovirus was generated by using Bac-N-Blue™ Transfection kit (Invitrogen) according to the manufacture's instruction. The recombinant virus was amplified by infection to High-Five™ insect cells for 5-6 days, and virus titer was determined by plaque assay.
High-Five™ insect cells were pelleted in a 225 ml conical tube by centrifugation at 1000 rpm for 5 min. After discarding the supernatant, the pellet was resuspended in 1.5×10^9 pfu (MOI=5) of high-titer virus solution, followed by incubation for 1.5 hours at room temperature. The cells were pelleted again and washed once in fresh Express Five™ serum free medium. The cells were pelleted again and finally, resuspended in 200 ml of fresh Express Five TM medium, transferred to a 1,000 ml shaker flask, and incubated in a shaker at 27° C., 130 rpm, for 48 hours before the culture supernatant was collected. The purification of 3-domain form of VCAM-1 from the culture supernatant was performed by one-step anion exchange chromatography. Protein concentration was determined by using Coomassie protein assay reagent (Pierce) according to the manufacture's instruction.
Preparation of VCAM-1 Coated Microtiter Plates
Recombinant human VCAM-1 (extracellular domains 1-3) was dissolved at 1.0 μg/ml in PBS. Each well of the microtiter plates (Nalge Nunc International, Fluoronunc Cert, 437958) was coated with 100 μl of substrate or for background control with buffer alone for 15 hours at 4 C. After discarding the substrate solution, the wells were blocked using 150 μl per well of block solution (Kirkegaard Perry Laboratories, 50-61-01) for 90 minutes. The plate was washed with wash buffer containing 24 mM Tris-HCl (pH 7.4), 137 mM NaCl, […] and 2 mM MnCl2 just before addition of the assay.
In Vitro Assay using Ramos Cells
Preparation of Fluorescence Labeled Ramos Cells:
Ramos cells (American Type Culture Collection, Clone CRL-1596) were cultured in RPMI 1640 medium (Nikken Bio Medical Laboratory, CM1101) supplemented with 10% fetal bovine serum (Hyclone, A-1119-L), 100 U/ml penicilin (Gibco BRL, 15140-122) and 100 μg/ml streptomycin (Gibco BRL, 15140-122) in a humidified incubator at 37° C. with 5% CO2. […]

IC50 [nM] | Structure (SMILES)
500 to 2000 | O=C(CN(CCCN1CCCC1)C(=O)Cc1ccc2nc(Nc3ccccc3)oc2c1)Nc1ccc(C(=O)O)cc1 [Example 84]
< 500 | Cc1ccccc1NC(=O)Nc1ccc(CC(=O)N(CC(=O)Nc2ccc(C(=O)O)cc2)CC2CCCO2)cc1 (stereo not drawn) [Example 61, 4-{[N-{[4-({[(2-methylphenyl)amino]carbonyl}amino)phenyl]acetyl}-N-(tetrahydro-2-furanylmethyl)glycyl]amino}benzoic acid]
< 500 | O=C(Cc1ccc2nc(Nc3ccccc3)oc2c1)N[C@@H](Cc1ccccc1)C(=O)Nc1ccc(C(=O)O)cc1 [Example 89, 4-({N-[(2-anilino-1,3-benzoxazol-6-yl)acetyl]-L-phenylalanyl}amino)benzoic acid]
< 500 | Cc1ccccc1NC(=O)Nc1ccc(CC(=O)N[C@@H](Cc2ccc(Br)cc2)C(=O)Nc2ccc(C(=O)O)cc2)cc1 [Example 90, 4-[(4-bromo-N-{[4-({[(2-methylphenyl)amino]carbonyl}amino)phenyl]-acetyl}-L-phenylalanyl)amino]benzoic acid]
< 500 | Cc1ccccc1NC(=O)Nc1ccc(CC(=O)NC(Cc2ccncc2)C(=O)Nc2ccc(C(=O)O)cc2)cc1 [Example 44, 4-{[N-{[4-(f{[(2-methylphenyl)amino]carbonyl}amino)phenyl]acetyl}-3-(4-pyridinyl)-L-alanyl]amino}benzoic acid]
< 500 | Cc1ccccc1NC(=O)Nc1ccc(CC(=O)N(CCc2c[nH]cn2)CC(=O)Nc2ccc(C(=O)O)cc2)cc1 [Example 72, 4-[(N-[2-(1H-imidazol-4-yl)ethyl]-N-{[4-({[(2-methylphenyl)amino]carbonyl}amino)phenyl]acetyl}glycyl)amino]benzoic acid]
< 500 | Cc1ccccc1NC(=O)Nc1ccc(CC(=O)N[C@@H](Cc2cscn2)C(=O)Nc2ccc(C(=O)O)cc2)cc1 [Example 46, 4-{[N-{[4-({[(2-methylphenyl)amino]carbonyl}amino)phenyl]acetyl}-3-(1,3-thiazol-4-yl)-L-alanyl]amino}benzoic acid]
< 500 | Cc1ccccc1NC(=O)Nc1ccc(CC(=O)N(CCc2ccccn2)CC(=O)Nc2ccc(C(=O)O)cc2)cc1 [Example 73, 4-({N-{[4-({[(2-methylphenyl)amino]carbonyl}amino)phenyl]acetyl}-N-[2-(2-pyridinyl)ethyl]glycyl}amino)benzoic acid]
< 500 | Cc1ccccc1NC(=O)Nc1ccc(CC(=O)N(CCCN(C)C)CC(=O)Nc2ccc(C(=O)O)cc2)cc1 [Example 56, 4-[(N-[3-(dimethylamino)propyl]-N-{[4-({[(2-methylphenyl)amino]carbonyl}amino)phenyl]acetyl}glycyl)amino]benzoic acid]
< 500 | Cc1ccccc1NC(=O)Nc1ccc(CC(=O)N(CCCN2CCCC2)CC(=O)Nc2ccc(C(=O)O)cc2)cc1 [Example 58, 4-({N-{[4-({[(2-methylphenyl)amino]carbonyl}amino)phenyl]acetyl}-N-[3-(1-pyrrolidinyl)propyl]glycyl}amino)benzoic acid]
< 500 | Cc1ccccc1NC(=O)Nc1ccc(CC(=O)N[C@@H](Cc2cccnc2)C(=O)Nc2ccc(C(=O)O)cc2)cc1 [Example 45, 4-{[N-{[4-({[(2-methylphenyl)amino]carbonyl}amino)phenyl]acetyl}-3-(3-pyridinyl)-L-alanyl]amino}benzoic acid]
< 500 | Cc1ccccc1NC(=O)Nc1ccc(CC(=O)N[C@@H](CCN)C(=O)Nc2ccc(C(=O)O)cc2)cc1 [Example 40, 4-{[(2S)-4-amino-2-({[4-({[(2-methylphenyl)amino]carbonyl}amino)phenyl]acetyl}amino)butanoyl]amino}benzoic acid]
< 500 | Cc1ccccc1NC(=O)Nc1ccc(CC(=O)N(CC(=O)Nc2ccc(C(=O)O)cc2)CC2CCNCC2)cc1 [Example 62, 4-{[N-{[4-({[(2-methylphenyl)amino]carbonyl}amino)phenyl]acetyl}-N-(4-piperidinylmethyl)glycyl]amino}benzoic acid]
< 500 | COc1cc(CCN(CC(=O)Nc2ccc(C(=O)O)cc2)C(=O)Cc2ccc3nc(Nc4ccccc4)oc3c2)cc(OC)c1 [Example 77, 4-({N-[(2-anilino-1,3-benzoxazol-6-yl)acetyl]-N-[2-(3,5-dimethoxyphenyl)-ethyl]glycyl}amino)benzoic acid]
< 500 | Cc1ccccc1NC(=O)Nc1ccc(CC(=O)N(CCCN2CCOCC2)CC(=O)Nc2ccc(C(=O)O)cc2)cc1 [Example 68, 4-({N-{[4-({[(2-methylphenyl)amino]carbonyl}amino)phenyl]acetyl}-N-[3-(4-morpholinyl)propyl]glycyl}amino)benzoic acid]
< 500 | Cc1ccccc1NC(=O)Nc1ccc(CC(=O)N[C@@H](CC(=O)O)C(=O)Nc2ccc(C(=O)O)cc2)cc1 [Example 42, 4-[(N-{[4-({[(2-methylphenyl)amino]carbonyl}amino)phenyl]acetyl}-L-α-aspartyl)amino]benzoic acid]
500 to 2000 | O=C(CN(Cc1ccccc1)C(=O)Cc1ccc2nc(Nc3ccccc3)oc2c1)Nc1ccc(C(=O)O)cc1 [Example 92]
< 500 | Cc1ccccc1NC(=O)Nc1ccc(CC(=O)N[C@@H](Cc2c[nH]c3ccccc23)C(=O)Nc2ccc(C(=O)O)cc2)cc1 [Example 43, 4-[(N-{[4-({[(2-methylphenyl)amino]carbonyl}amino)phenyl]acetyl}-L-tryptophyl)amino]benzoic acid]
< 500 | Cc1ccccc1NC(=O)Nc1ccc(CC(=O)N(CCCN2CCN(c3ccccc3)CC2)CC(=O)Nc2ccc(C(=O)O)cc2)cc1 [Example 60, 4-({N-{[4-({[(2-methylphenyl)amino]carbonyl}amino)phenyl]acetyl}-N-[3-(4-phenyl-1-piperazinyl)propyl]glycyl}amino)benzoic acid]
< 500 | Cc1ccccc1NC(=O)Nc1ccc(CC(=O)N(CC(=O)Nc2ccc(C(=O)O)cc2)CC(C)(C)CN)cc1 [Example 63, 4-[(N-(3-amino-2,2-dimethylpropyl)-N-{[4-({[(2-methylphenyl)amino]-carbonyl}amino)phenyl]acetyl}glycyl)amino]benzoic acid]
< 500 | COCCN(CC(=O)Nc1ccc(C(=O)O)cc1)C(=O)Cc1ccc(NC(=O)Nc2ccccc2C)cc1 [Example 67, 4-[(N-(2-methoxyethyl)-N-{[4-({[(2-methylphenyl)amino]carbonyl}amino)-phenyl]acetyl}glycyl)amino]benzoic acid]
500 to 2000 | O=C(Cc1ccc2nc(Nc3ccccc3)oc2c1)N[C@@H](Cc1ccc(Br)cc1)C(=O)Nc1ccc(C(=O)O)cc1 [Example 91]
< 500 | Cc1ccccc1NC(=O)Nc1ccc(CC(=O)N(CC(=O)Nc2ccc(C(=O)O)cc2)Cc2ccccc2)cc1 [Example 86, 4-[(N-benzyl-N-{[4-({[(2-methylphenyl)amino]carbonyl}amino)phenyl]-acetyl}glycyl)amino]benzoic acid]

Same assay, conditions: Homo sapiens; observed IC50 value ranges; Table 4 does not say whether Ramos-VCAM-1 or Jurkat-VCAM-1; read-out: IC50

Structure (SMILES) | IC50 [nM]
Cc1ccccc1NC(=O)Nc1ccc(CC(=O)N(CCN2CCCC2)CC(=O)Nc2ccc(C(=O)O)cc2)cc1 [Example 64, 4-({N-{[4-({[(2-methylphenyl)amino]carbonyl}amino)phenyl]acetyl}-N-[2-(1-pyrrolidinyl)ethyl]glycyl}amino)benzoic acid] | < 500
